Reference: patent publication US11130793B2, “GLP-1/GLP-2 dual agonists” (Zealand Pharma A/S, priority 2016, dated 2021)
Square brackets hold non-standard residues; d marks the D form. Peptide text beside a SMILES is read from it. Aib = CC(C)(N)C(=O)O

Legend:
[1] = target: T1, human GLP-1 receptor (Homo sapiens, UniProt P43220); assay: GLP-1 receptor potency assay (cAMP AlphaScreen, HEK293 cells stably expressing GLP-1R); type: cell-based; details: cAMP response, HEK293 cells expressing human GLP-1R; read-out: EC50 GLP-1
T1 construct: expressed in transfected cells
T1 sequence (P43220 24-463): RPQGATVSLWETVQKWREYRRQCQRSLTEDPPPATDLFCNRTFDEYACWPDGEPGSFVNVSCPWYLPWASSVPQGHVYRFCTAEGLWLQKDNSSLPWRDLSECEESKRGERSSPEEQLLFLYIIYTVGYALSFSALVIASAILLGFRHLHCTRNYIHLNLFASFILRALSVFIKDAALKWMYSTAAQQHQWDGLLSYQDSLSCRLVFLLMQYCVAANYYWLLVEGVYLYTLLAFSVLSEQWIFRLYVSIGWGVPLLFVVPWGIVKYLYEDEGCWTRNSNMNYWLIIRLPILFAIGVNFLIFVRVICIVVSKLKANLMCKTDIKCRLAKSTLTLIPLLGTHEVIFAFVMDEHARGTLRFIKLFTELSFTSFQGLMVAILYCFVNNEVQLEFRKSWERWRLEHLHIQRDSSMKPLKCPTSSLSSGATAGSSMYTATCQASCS
In short: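 cAMP accumulation was quantified by AlphaScreen in G418-selected HEK293 cells stably transfected with human GLP-1R cDNA. Concentration-response data were normalized between vehicle and positive control. EC50 and maximal response came from 4PL curve fitting.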

[2] = target: T2, human GLP-2 receptor (Homo sapiens, UniProt O95838, D470N); assay: GLP-2 receptor potency assay (cAMP AlphaScreen, HEK293 cells stably expressing GLP-2R); type: cell-based; details: cAMP response, HEK293 cells expressing human GLP-2R
T2 sequence (O95838 1-553 D470N): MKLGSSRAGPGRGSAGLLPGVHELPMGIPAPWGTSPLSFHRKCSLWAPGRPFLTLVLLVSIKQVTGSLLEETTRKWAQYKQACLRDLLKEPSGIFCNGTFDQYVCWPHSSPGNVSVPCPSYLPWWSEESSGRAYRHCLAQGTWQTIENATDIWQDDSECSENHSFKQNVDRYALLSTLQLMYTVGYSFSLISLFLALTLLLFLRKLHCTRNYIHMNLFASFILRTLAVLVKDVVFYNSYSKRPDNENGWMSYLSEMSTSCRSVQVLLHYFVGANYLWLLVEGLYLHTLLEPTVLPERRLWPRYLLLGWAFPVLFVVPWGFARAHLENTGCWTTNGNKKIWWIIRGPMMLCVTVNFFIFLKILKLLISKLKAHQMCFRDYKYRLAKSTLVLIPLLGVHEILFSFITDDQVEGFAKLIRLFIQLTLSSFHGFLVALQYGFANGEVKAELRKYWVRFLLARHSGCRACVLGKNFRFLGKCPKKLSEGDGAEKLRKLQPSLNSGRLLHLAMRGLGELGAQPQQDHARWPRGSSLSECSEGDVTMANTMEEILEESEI
From the text: One useful in vitro assay for measuring GLP-1 and GLP-2 receptor activity is quantitation of cAMP, i.e. 3′-5′-cyclic adenosine monophosphate, which is a second messenger essential in many biological processes, and one of the most ubiquitous mechanisms for regulating cellular functions. […] Test compounds eliciting an increase in the intracellular level of cAMP can be tested in these assays, and the response normalized relative to a positive and negative control (vehicle) to calculate the EC50 and maximal response from the concentration response curve using the 4-parameter logistic (4PL) nonlinear model for curve fitting.
The hGLP2-R was purchased from MRC-geneservice, Babraham, Cambridge as an Image clone: 5363415 (11924-I17). For subcloning into a mammalian expression vector, primers for subcloning were obtained from DNA-Technology, Risskov, Denmark. The 5′ and 3′ primers used for the PCR reaction include terminal restriction sites for cloning and the context of the 5′ primer is modified to a Kozak consensus without changing the sequence of the product encoded by the ORF. A standard PCR reaction was run using Image clone 5363415 (11924-117) as a template with the above mentioned primers and Polymerase Herculase II Fusion in a total vol. of 50 μl. The generated PCR product was purified using GFX PCR and Gel band purification kit, digested with restriction enzymes and cloned into the mammalian expression vector using Rapid DNA Ligation Kit. Ligation reaction was transformed to XL10 Gold Ultracompetent cells and colonies were picked for DNA production using Endofree Plasmid maxi kit. Subsequent sequence analysis was conducted by MWG Eurofins, Germany.
HEK293 cells were transfected using the Lipofectamine PLUS transfection method. The day before transfection, HEK293 cells were seeded in two T75 flasks at a density of 2×10^6 cells/T75 flask in cell culturing medium without antibiotics. On the day of transfection, cells were washed with 1×DPBS and medium was replaced with Optimem to a volume of 5 mL/T75 flask before addition of Lipofectamine-plasmid complexes were added gently and drop wise to the cells in T75 flasks and replaced with growth medium after 3 hours and again to growth medium supplemented with 500 μg/mL G418 after 24 hours. Following 4 weeks in G418 selection, clones were picked and tested in a functional GLP-2 receptor potency assay as described below.
The cAMP AlphaScreen assay from Perkin Elmer was used to quantitate the cAMP response to activation of the GLP1 and GLP2 receptor, respectively. […] Data from test compounds eliciting an increase in the intracellular level of cAMP were normalized relative to the positive and negative control (vehicle) to calculate the EC50 and maximal response from the concentration response curve.

Compound	EC50 [1] [nM]	EC50 [2] [nM]
CC[C@H](C)[C@H](NC(=O)[C@H](CC(C)C)NC(=O)[C@H](Cc1c[nH]c2ccccc12)NC(=O)[C@H](C)NC(=O)[C@@H](NC(=O)[C@H](Cc1ccccc1)NC(=O)[C@H](CC(=O)O)NC(=O)[C@H](CCCNC(=N)N)NC(=O)[C@H](C)NC(=O)[C@H](C)NC(=O)[C@H](CCC(N)=O)NC(=O)[C@H](CCC(=O)O)NC(=O)[C@H](CC(=O)O)NC(=O)[C@H](CC(C)C)NC(=O)[C@@H](NC(=O)[C@@H](NC(=O)[C@H](C)NC(=O)[C@H](CC(C)C)NC(=O)[C@H](CCC(=O)O)NC(=O)[C@H](CO)NC(=O)[C@@H](NC(=O)[C@H](Cc1ccccc1)NC(=O)[C@@H](NC(=O)CNC(=O)[C@H](CCC(=O)O)NC(=O)C(C)(C)NC(=O)[C@@H](N)Cc1c[nH]cn1)[C@@H](C)O)[C@@H](C)O)[C@@H](C)O)[C@@H](C)CC)[C@@H](C)CC)C(=O)N[C@@H](C)C(=O)N[C@@H](Cc1ccc(O)cc1)C(=O)N[C@@H](CCCCN)C(=O)N[C@H](C(=O)N[C@H](C(=O)N[C@@H](CC(=O)O)C(=O)O)[C@@H](C)O)[C@@H](C)CC [Compound 20] (H-H[Aib]EGTFTSELATILDEQAARDFIAWLIAYKITD-OH)	0.012	0.26
CC[C@H](C)[C@H](NC(=O)[C@H](Cc1ccccc1)NC(=O)[C@H](CC(=O)O)NC(=O)[C@H](CCCNC(=N)N)NC(=O)[C@H](C)NC(=O)[C@H](C)NC(=O)[C@H](CCC(N)=O)NC(=O)[C@H](CCC(=O)O)NC(=O)[C@H](CC(=O)O)NC(=O)[C@H](CC(C)C)NC(=O)[C@@H](NC(=O)[C@@H](NC(=O)[C@H](C)NC(=O)[C@H](CC(C)C)NC(=O)[C@H](CCC(=O)O)NC(=O)[C@H](CO)NC(=O)[C@@H](NC(=O)[C@H](Cc1ccccc1)NC(=O)[C@@H](NC(=O)CNC(=O)[C@H](CCC(=O)O)NC(=O)C(C)(C)NC(=O)[C@@H](N)Cc1c[nH]cn1)[C@@H](C)O)[C@@H](C)O)[C@@H](C)O)[C@@H](C)CC)C(=O)N[C@@H](C)C(=O)N[C@@H](Cc1c[nH]c2ccccc12)C(=O)N[C@@H](CC(C)C)C(=O)N[C@@H](Cc1c[nH]cn1)C(=O)N[C@@H](CCC(N)=O)C(=O)N[C@@H](Cc1c[nH]cn1)C(=O)N[C@@H](CCCCN)C(=O)N[C@H](C(=O)N[C@H](C(=O)N[C@@H](CC(=O)O)C(=O)O)[C@@H](C)O)[C@@H](C)CC [Compound 21] (H-H[Aib]EGTFTSELATILDEQAARDFIAWLHQHKITD-OH)	0.049	0.11
CC[C@H](C)[C@H](NC(=O)[C@H](Cc1ccccc1)NC(=O)[C@H](CC(=O)O)NC(=O)[C@H](CCCNC(=N)N)NC(=O)[C@H](C)NC(=O)[C@H](C)NC(=O)[C@H](CCC(N)=O)NC(=O)[C@H](CCC(=O)O)NC(=O)[C@H](CC(=O)O)NC(=O)[C@H](CC(C)C)NC(=O)[C@@H](NC(=O)[C@@H](NC(=O)[C@H](C)NC(=O)[C@H](CC(C)C)NC(=O)[C@H](CCC(=O)O)NC(=O)[C@H](CO)NC(=O)[C@@H](NC(=O)[C@H](Cc1ccccc1)NC(=O)[C@H](CO)NC(=O)CNC(=O)[C@H](CCC(=O)O)NC(=O)C(C)(C)NC(=O)[C@@H](N)Cc1c[nH]cn1)[C@@H](C)O)[C@@H](C)O)[C@@H](C)CC)C(=O)N[C@@H](C)C(=O)N[C@@H](Cc1c[nH]c2ccccc12)C(=O)N[C@@H](CC(C)C)C(=O)N[C@@H](Cc1ccc(O)cc1)C(=O)N[C@@H](CCC(=O)O)C(=O)N[C@@H](Cc1c[nH]cn1)C(=O)N[C@@H](CCCCN)C(=O)N[C@H](C(=O)N[C@H](C(=O)N[C@@H](CC(=O)O)C(=O)O)[C@@H](C)O)[C@@H](C)CC [Compound 23] (H-H[Aib]EGSFTSELATILDEQAARDFIAWLYEHKITD-OH)	0.12	0.034
CC[C@H](C)[C@H](NC(=O)[C@H](Cc1ccccc1)NC(=O)[C@H](CC(=O)O)NC(=O)[C@H](CCCNC(=N)N)NC(=O)[C@H](C)NC(=O)[C@H](C)NC(=O)[C@H](CCC(N)=O)NC(=O)[C@H](CCC(=O)O)NC(=O)[C@H](CC(=O)O)NC(=O)[C@H](CC(C)C)NC(=O)[C@@H](NC(=O)[C@@H](NC(=O)[C@H](C)NC(=O)[C@H](CC(C)C)NC(=O)[C@H](CCC(=O)O)NC(=O)[C@H](CO)NC(=O)[C@@H](NC(=O)[C@H](Cc1ccccc1)NC(=O)[C@H](CO)NC(=O)CNC(=O)[C@H](CCC(=O)O)NC(=O)C(C)(C)NC(=O)[C@@H](N)Cc1c[nH]cn1)[C@@H](C)O)[C@@H](C)O)[C@@H](C)CC)C(=O)N[C@@H](C)C(=O)N[C@@H](Cc1c[nH]c2ccccc12)C(=O)N[C@@H](CC(C)C)C(=O)N[C@@H](CCC(N)=O)C(=O)N[C@@H](C)C(=O)N[C@@H](Cc1c[nH]cn1)C(=O)N[C@@H](CCCCN)C(=O)N[C@H](C(=O)N[C@H](C(=O)N[C@@H](CC(=O)O)C(=O)O)[C@@H](C)O)[C@@H](C)CC [Compound 24] (H-H[Aib]EGSFTSELATILDEQAARDFIAWLQAHKITD-OH)	0.042	0.049
CC[C@H](C)[C@H](NC(=O)[C@H](CC(C)C)NC(=O)[C@H](Cc1c[nH]c2ccccc12)NC(=O)[C@H](C)NC(=O)[C@@H](NC(=O)[C@H](Cc1ccccc1)NC(=O)[C@H](CC(=O)O)NC(=O)[C@H](CCCNC(=N)N)NC(=O)[C@H](C)NC(=O)[C@H](C)NC(=O)[C@H](CCC(N)=O)NC(=O)[C@H](CCC(=O)O)NC(=O)[C@H](CC(=O)O)NC(=O)[C@H](CC(C)C)NC(=O)[C@@H](NC(=O)[C@@H](NC(=O)[C@H](C)NC(=O)[C@H](CC(C)C)NC(=O)[C@H](CCC(=O)O)NC(=O)[C@H](CO)NC(=O)[C@@H](NC(=O)[C@H](Cc1ccccc1)NC(=O)[C@H](CO)NC(=O)CNC(=O)[C@H](CCC(=O)O)NC(=O)C(C)(C)NC(=O)[C@@H](N)Cc1c[nH]cn1)[C@@H](C)O)[C@@H](C)O)[C@@H](C)CC)[C@@H](C)CC)C(=O)N[C@@H](C)C(=O)N[C@@H](CCC(N)=O)C(=O)N[C@@H](CCCCN)C(=O)N[C@H](C(=O)N[C@H](C(=O)N[C@@H](CC(=O)O)C(=O)O)[C@@H](C)O)[C@@H](C)CC [Compound 25] (H-H[Aib]EGSFTSELATILDEQAARDFIAWLIAQKITD-OH)	0.008	0.062
CC[C@H](C)[C@H](NC(=O)[C@H](Cc1ccccc1)NC(=O)[C@H](CC(=O)O)NC(=O)[C@H](CCCNC(=N)N)NC(=O)[C@H](C)NC(=O)[C@H](C)NC(=O)[C@H](CCC(N)=O)NC(=O)[C@H](CCC(=O)O)NC(=O)[C@H](CC(=O)O)NC(=O)[C@H](CC(C)C)NC(=O)[C@@H](NC(=O)[C@@H](NC(=O)[C@H](C)NC(=O)[C@H](CC(C)C)NC(=O)[C@H](CCC(=O)O)NC(=O)[C@H](CO)NC(=O)[C@@H](NC(=O)[C@H](Cc1ccccc1)NC(=O)[C@H](CO)NC(=O)CNC(=O)[C@H](CCC(=O)O)NC(=O)C(C)(C)NC(=O)[C@@H](N)Cc1c[nH]cn1)[C@@H](C)O)[C@@H](C)O)[C@@H](C)CC)C(=O)N[C@@H](C)C(=O)N[C@@H](Cc1c[nH]c2ccccc12)C(=O)N[C@@H](CC(C)C)C(=O)N[C@@H](Cc1ccc(O)cc1)C(=O)N[C@@H](C)C(=O)N[C@@H](Cc1c[nH]cn1)C(=O)N[C@@H](CCCCN)C(=O)N[C@H](C(=O)N[C@H](C(=O)N[C@@H](CC(=O)O)C(=O)O)[C@@H](C)O)[C@@H](C)CC [Compound 28] (H-H[Aib]EGSFTSELATILDEQAARDFIAWLYAHKITD-OH)	0.11	0.024
